Source: patent US20160032327A1, “PROCESS FOR CULTURING DEINOCOCCUS BACTERIA” (DEINOVE, priority 2012, published 2016)
Where two headings read alike, the source gives them in different places.

Assays:
[1] = system: Deinococcus geothermalis M36-7D—21
Method: The growth of Deinococcus geothermalis M36-7D—21 was performed in microplates in CMG medium containing Peptone 2 g/L; Yeast Extract 5 g/L; Glucose 55 mM (10 g/L); MOPS acid 40 mM; NH4Cl 20 mM; NaOH 10 mM; KOH 10 mM; CaCl2.2H2O 0.5 μM; Na2SO4.10H2O 0.276 mM; MgCl2.6H2O 0.528 mM; (NH4)6(Mo7)O24.4H2O 3 nM; H3BO3 0.4 μM; CoCl2.6H2O 30 nM; CuSO4.5H2O 10 nM; MnCl2 0.25 μM; ZnSO4.7H2O 10 nM; D-Biotin 1 μg/L; Niacin (nicotinic acid) 1 μg/L; Pyridoxin (pyridoxal HCl ou vitamine B6) 1 μg/L; Thiamin HCl (vitamine B1); FeCl3 20 μM; Sodium Citrate.2H2O 20 μM; K2HPO4 5,7 mM.
The addition of 100 mM hydrogen peroxide was made at TO (begin of the growth) or at the exponential phase.
The growth was monitored by measuring the OD600 nm.

[2] = system: Saccharomyces cerevisiae 2640; settings: S. cerevisiae, 30° C., CMG medium
Text: (§1) And the “Inhibitory Concentration of an oxidizer towards a Deinococcus or a related bacterium” (“ICD”) refers to the minimum concentration of said oxidizer in the culture medium that inhibits or reduces the growth of the Deinococcus. The IC may be easily ascertained for each microorganism or each strain thereof, and for each oxidizer, by implementing test cultures. For example, the strain of interest may be cultivated in several parallel cultures, each of said cultures containing an increased concentration of the oxidizer. After 2 or 3 days, the cultures are observed to measure the microbial growth and thereby to determine the IC.
(§2) Preculture was done for 3 days in CMG 1%. After checking the purity of the culture, cell pellet was washed three times in sterile water and then DO was adjusted to 2.
(§3) Hydrogen peroxide stock solution: H2O2 (30%wt solution, SIGMA ref. 216763, stored at 4° C.)
(§4) Preparation of the H2O2 range:
(§5) Dispense 180 μl of media into culture wells (200 μl into blank wells)
(§6) Add 20 μL of washed cell pellet at an optical density (600 nm) of 2 into well to be inoculated.
(§7) Gently add 50 μL of mineral oil on the well surface to limit evaporation.
(§8) Microplate was incubated for 3 days at 30 or 45° C. according to the optimal growth temperature indicated in the first part. Growth was monitored by an absorbance measure.

M36-7D_21 [3] = system: M36-7D_21
Text: as §1, §2, §3, §4, §5, §6, §7, §8

M36-7Dwt = system: M36-7Dwt
Text: as §1, §2, §3, §4, §5, §6, §7, §8

M36-7D_17 = system: M36-7D_17
Text: as §1, §2, §3, §4, §5, §6, §7, §8

Zymomonas mobilis DSM424 = settings: Z. mobilis, 30° C., CMG medium
Text: as §1, §2, §3, §4, §5, §6, §7, §8

[4] = system: Deinococcus radiodurans R1
Text: as §1, §2, §3, §4, §5, §6, §7, §8

Escherichia coli K12 = settings: E. coli, 30° C., CMG medium
Text: as §1, §2, §3, §4, §5, §6, §7, §8

MX6-1E_04 = settings: no growth after 24 or 96 h on agar plates at 45° C.
Method: (§9) Deinococcus geothermalis M36-7D—21 and MX61E—04 were cultivated in 20% starch effluent pH 5 containing 15 mM NH4Cl and 5.30 mM K2HPO4
(§10) 5 ml of the cultures were treated during one hour with different concentration of H2O2 (20, 50,100, 150 and 200 mM) at room temperature or at 45° C.
(§11) The control sample corresponds to untreated sample (0 mM H2O2).
(§12) The control and treated samples were then spread on agar plates containing 10% effluent starch and incubated during 24 and 96 hours at 45° C.
(§13) The inhibitory concentration (IC expressed in mM) is the hydrogen peroxide concentration from which there was no growth after 24 or 96 h.

M36-7D_21 [5] = settings: no growth after 24 or 96 h on agar plates at 45° C.
Method: as §9, §10, §11, §12, §13

[6] = one hour treatment at room temperature

OO [hydrogen peroxide]
Effect on growth of M36-7D—21 (OD600 nm) ([1]; 100 mM hydrogen peroxide added at TO (begin of the growth)): did not affect the growth | Effect on growth of M36-7D—21 (OD600 nm) ([1]; 100 mM hydrogen peroxide added at the exponential phase): did not affect the growth | IC: concentration of hydrogen peroxide from which there was no growth after 3 days of incubation [2]: 20 mM | IC: concentration of hydrogen peroxide from which there was no growth after 3 days of incubation (M36-7D_21 [3]; M36-7D_21, CMG medium, 3 days): 200 mM | Concentration of hydrogen peroxide in the presence of which the strain is able to grow (M36-7D_21 [3]; modified D. geothermalis M36-7D (M36-7D_21)): up to 190 mM | Concentration of hydrogen peroxide in the presence of which the strain is able to grow (M36-7Dwt; D. geothermalis M36-7Dwt): up to 190 mM | IC: concentration of hydrogen peroxide from which there was no growth after 3 days of incubation (M36-7Dwt; M36-7Dwt, 45° C., CMG medium, 3 days): 200 mM | IC: concentration of hydrogen peroxide from which there was no growth after 3 days of incubation (M36-7D_17; M36-7D_17, CMG medium, 3 days): 200 mM | Concentration of hydrogen peroxide in the presence of which the strain is able to grow (M36-7D_17; modified D. geothermalis M36-7D (M36-7D_17)): up to 190 mM | IC: concentration of hydrogen peroxide from which there was no growth after 3 days of incubation (Zymomonas mobilis DSM424): 10 mM | Concentration of hydrogen peroxide in the presence of which the strain is able to grow ([4]; D. radiodurans R1): up to 190 mM | IC: concentration of hydrogen peroxide from which there was no growth after 3 days of incubation ([4]; D. radiodurans R1, 30° C., CMG medium, 3 days): 200 mM | IC: concentration of hydrogen peroxide from which there was no growth after 3 days of incubation (Escherichia coli K12): 10 mM | Inhibitory concentration (mM) of hydrogen peroxide (MX6-1E_04; one hour treatment at 45° C.): 50 mM | Inhibitory concentration (mM) of hydrogen peroxide (MX6-1E_04; [6]): 100 mM | Inhibitory concentration (mM) of hydrogen peroxide (M36-7D_21 [5]; one hour treatment at 45° C.): 200 mM | Inhibitory concentration (mM) of hydrogen peroxide (M36-7D_21 [5]; [6]): >200 mM | IC: concentration of hydrogen peroxide from which there was no growth after 3 days of incubation (M36-7D_18; M36-7D_18, CMG medium, 3 days): 200 mM | Concentration of hydrogen peroxide in the presence of which the strain is able to grow (M36-7D_18; modified D. geothermalis M36-7D (M36-7D_18)): up to 190 mM
